Reference: the supplement of paper PMC12137928
Structures can show the parent of a compound that is named as a salt.

System: HCT116
Conditions: 72 h
Method in brief: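 After seeding at 250 cells per well in 1536-well plates, HCT116 cells were given 5 h to attach. CellTiter-Glo luminescence, scaled to 0% for vehicle and -100% for positive control, was pattern-corrected. Fitting with a four-parameter Hill model produced IC50 and maximal efficacy.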

| Structure (SMILES) | IC50 cell viability (ICRF193 0 nM) | IC50 cell viability (ICRF193 200 nM) |
| --- | --- | --- |
| NC[C@H]1O[C@H](O[C@H]2[C@H](O)[C@@H](O[C@H]3O[C@H](CO)[C@@H](O)[C@H](N)[C@H]3O)[C@H](N)C[C@@H]2N)[C@H](N)C[C@@H]1O [Tobramycin] | > 45.8 µM | > 45.8 µM |
| Cc1cccc(C)c1NC(=O)C(C)N (configuration not stated) [Tocainide hydrochloride] | > 45.8 µM | > 45.8 µM |
| Cc1ccc(C(C)OC(=O)C2(C)CCC(C(=O)O)C2(C)C)cc1 (configuration not stated) [Tocanfil] | > 45.8 µM | > 45.8 µM |
| CC1=C(/C=C/C(C)=C/C=C/C(C)=C/C(=O)Oc2c(C)c(C)c3c(c2C)CCC(C)(CCCC(C)CCCC(C)CCCC(C)C)O3)C(C)(C)CCC1 (configuration not stated) [Tocoretinate] | > 45.8 µM | > 45.8 µM |
| CCOC(=O)NNc1nncc2ccccc12 [Todralazine hydrochloride] | > 45.8 µM | > 45.8 µM |
| C[C@@H]1CCN(C(=O)CC#N)C[C@@H]1N(C)c1ncnc2[nH]ccc12 [Tofacitinib] | > 45.8 µM | > 45.8 µM |
| CCC1C(C)=NN=C(c2ccc(OC)c(OC)c2)c2cc(OC)c(OC)cc21 (configuration not stated) [Tofisopam] | > 45.8 µM | > 45.8 µM |
| CCc1ccc(Cc2ccc3c(c2)[C@]2(OC3)O[C@H](CO)[C@@H](O)[C@H](O)[C@H]2O)cc1 [Tofogliflozin (hydrate)] | > 45.8 µM | > 45.8 µM |
| Cc1ccc(S(=O)(=O)NC(=O)NN2CCCCCC2)cc1 [Tolazamide] | > 45.8 µM | > 45.8 µM |
| c1ccc(CC2=NCCN2)cc1 [Tolazoline hydrochloride] | > 45.8 µM | > 45.8 µM |
| CCCCNC(=O)NS(=O)(=O)c1ccc(C)cc1 [Tolbutamide] | > 45.8 µM | > 45.8 µM |
| Cc1cccc(N(C)C(=S)Oc2ccc3c(c2)C2CCC3C2)c1 (configuration not stated) [Tolciclate] | > 45.8 µM | > 45.8 µM |
| Cc1cccc(N(C)C(=S)Oc2ccc3c(c2)CCC3)c1 [Tolindate] | > 45.8 µM | > 45.8 µM |
| Cc1ccc(C(=O)c2ccc(CC(=O)O)n2C)cc1 [Tolmetin sodium dihydrate] | > 45.8 µM | > 45.8 µM |
| Cc1cccc(N(C)C(=S)Oc2ccc3ccccc3c2)c1 [Tolnaftate] | > 45.8 µM | > 45.8 µM |
| Cc1ccc(C(=O)C(C)CN2CCCCC2)cc1 (configuration not stated) [Tolperisone hydrochloride] | > 45.8 µM | > 45.8 µM |
| Cc1ccc(O)c([C@H](CCN(C(C)C)C(C)C)c2ccccc2)c1 [Tolterodine] | > 45.8 µM | > 45.8 µM |
| Cc1ccccc1C(=O)Nc1ccc(C(=O)N2CCCC(O)c3cc(Cl)ccc32)c(C)c1 (configuration not stated) [Tolvaptan] | > 45.8 µM | > 45.8 µM |
| CCN(CC)CC(=O)Nc1c(C)cccc1C(=O)OC [Tolycaine] | > 45.8 µM | > 45.8 µM |
| CC1(C)O[C@@H]2[C@@H](CO[C@@]3(COS(N)(=O)=O)OC(C)(C)O[C@@H]23)O1 [Topiramate] | > 45.8 µM | > 45.8 µM |
| N#Cc1cc(-c2n[nH]c(-c3ccncc3)n2)ccn1 [Topiroxostat] | > 45.8 µM | > 45.8 µM |

| Structure (SMILES) | IC50 cell viability (ICRF193 0 nM) | IC50 cell viability (ICRF193 200 nM) |
| --- | --- | --- |
| Cc1cccc(Nc2ccncc2S(=O)(=O)NC(=O)NC(C)C)c1 [Torsemide] | > 45.8 µM | > 45.8 µM |
| NC1CCN(c2nc3c(cc2F)c(=O)c(C(=O)O)cn3-c2ccc(F)cc2F)C1 (configuration not stated) [Tosufloxacin toluenesulfonic acid] | > 45.8 µM | > 45.8 µM |
| COc1ccc(/C=C/C(=O)Nc2ccccc2C(=O)O)cc1OC [Tranilast] | > 45.8 µM | > 45.8 µM |
| CC1(C)[C@H](C=C(Cl)Cl)[C@H]1C(=O)OCc1c(F)c(F)cc(F)c1F [Transfluthrin] | > 45.8 µM | > 45.8 µM |
| N[C@@H]1C[C@H]1c1ccccc1 [Tranylcypromine hydrochloride] | > 45.8 µM | > 45.8 µM |
| O=c1n(CCCN2CCN(c3cccc(Cl)c3)CC2)nc2ccccn12 [Trazodone hydrochloride] | > 45.8 µM | > 45.8 µM |
| Cn1c(=O)cc(N2CCC[C@@H](N)C2)n(Cc2cc(F)ccc2C#N)c1=O [Trelagliptin succinate] | > 45.8 µM | > 45.8 µM |
| CC(=O)O[C@H]1CC[C@H]2[C@@H]3CCC4=CC(=O)CCC4=C3C=C[C@]12C [Trenbolone (acetate)] | > 45.8 µM | > 45.8 µM |
| CS(=O)(=O)OC[C@H](O)[C@@H](O)COS(C)(=O)=O [Treosulfan] | > 45.8 µM | > 45.8 µM |
| CCOc1cc(OCC)c(C(=O)CCC(=O)O)cc1OCC [Trepibutone] | > 45.8 µM | > 45.8 µM |
| CC(=O)OCC(COC(C)=O)OC(C)=O [Triacetin] | > 45.8 µM | > 45.8 µM |
| CC1(C)O[C@@H]2C[C@H]3[C@@H]4CCC5=CC(=O)C=C[C@]5(C)[C@@]4(F)[C@@H](O)C[C@]3(C)[C@]2(C(=O)CO)O1 [Triamcinolone acetonide] | > 45.8 µM | > 45.8 µM |
| CC(=O)OCC(=O)[C@@]1(O)[C@H](OC(C)=O)C[C@H]2[C@@H]3CCC4=CC(=O)C=C[C@]4(C)[C@@]3(F)[C@@H](O)C[C@@]21C [Triamcinolone diacetate] | > 45.8 µM | > 45.8 µM |
| CC(C)(C)CC(=O)OCC(=O)[C@@]12OC(C)(C)O[C@@H]1C[C@H]1[C@@H]3CCC4=CC(=O)C=C[C@]4(C)[C@@]3(F)[C@@H](O)C[C@@]12C [Triamcinolone hexacetonide] | > 45.8 µM | > 45.8 µM |
| C[C@]12C=CC(=O)C=C1CC[C@H]1[C@@H]3C[C@@H](O)[C@](O)(C(=O)CO)[C@@]3(C)C[C@H](O)[C@@]12F [Triamcinolone] | > 45.8 µM | > 45.8 µM |
| O=C(Nc1ccc(Br)cc1)c1cc(Br)cc(Br)c1O [Tribromsalan] | > 45.8 µM | > 45.8 µM |
| CCCCCCCC(=O)OCC(COC(=O)CCCCCCC)OC(=O)CCCCCCC [Tricaprylin] | > 45.8 µM | > 45.8 µM |
| COP(=O)(OC)C(O)C(Cl)(Cl)Cl (configuration not stated) [Trichlorfon] | > 45.8 µM | > 45.8 µM |
| NS(=O)(=O)c1cc2c(cc1Cl)NC(C(Cl)Cl)NS2(=O)=O (configuration not stated) [Trichlormethiazide] | > 45.8 µM | > 45.8 µM |
| O=C(O)C(Cl)(Cl)Cl [Trichloroacetic acid] | > 45.8 µM | > 45.8 µM |
| CC[N+](CC)(CC)CCC(O)(c1ccccc1)C1CCCCC1 (configuration not stated) [Tridihexethyl chloride] | > 45.8 µM | > 45.8 µM |

| Structure (SMILES) | IC50 cell viability (ICRF193 0 nM) | IC50 cell viability (ICRF193 200 nM) |
| --- | --- | --- |
| OCCN(CCO)CCO [Triethanolamine] | > 45.8 µM | > 45.8 µM |
| OCCOCCOCCO [Triethylene glycol] | > 45.8 µM | > 45.8 µM |
| NCCNCCNCCN [Triethylenetetramine] | > 45.8 µM | > 45.8 µM |
| OC(CCN1CCCCC1)(c1ccccc1)C1CCCCC1 (configuration not stated) [Trihexyphenidyl hydrochloride] | > 45.8 µM | > 45.8 µM |
| C[C@]12CC[C@H]3[C@@H](CC[C@@]45O[C@@H]4C(O)=C(C#N)C[C@]35C)[C@@H]1CC[C@@H]2O [Trilostane] | > 45.8 µM | > 45.8 µM |
| CC(CN(C)C)CN1c2ccccc2Sc2ccccc21 (configuration not stated) [Trimeprazine tartrate] | > 45.8 µM | > 45.8 µM |
| COc1ccc(CN2CCNCC2)c(OC)c1OC [Trimetazidine dihydrochloride] | > 45.8 µM | > 45.8 µM |
| CN1C(=O)OC(C)(C)C1=O [Trimethadione] | > 45.8 µM | > 45.8 µM |
| COc1cc(C(=O)NCc2ccc(OCCN(C)C)cc2)cc(OC)c1OC [Trimethobenzamide hydrochloride] | > 45.8 µM | > 45.8 µM |
| COc1cc(Cc2cnc(N)nc2N)cc(OC)c1OC [Trimethoprim] | > 45.8 µM | > 45.8 µM |
| COc1cc(CC2NCCc3cc(O)c(O)cc32)cc(OC)c1OC (configuration not stated) [Trimethoquinol] | > 45.8 µM | > 45.8 µM |
| CC(CN(C)C)CN1c2ccccc2CCc2ccccc21 (configuration not stated) [Trimipramine maleate] | > 45.8 µM | > 45.8 µM |
| Cc1cc2cc3c(C)cc(=O)oc3c(C)c2o1 [Trioxsalen] | > 45.8 µM | > 45.8 µM |
| NS(=O)(=O)c1cc(C(=O)NN2C[C@@H]3[C@H]4CC[C@H](C4)[C@@H]3C2)ccc1Cl [Tripamide] | > 45.8 µM | > 45.8 µM |
| CN(C)CCN(Cc1ccccc1)c1ccccn1 [Tripelennamine citrate] | > 45.8 µM | > 45.8 µM |
| Cc1ccc(/C(=C\CN2CCCC2)c2ccccn2)cc1 [Triprolidine] | > 45.8 µM | > 45.8 µM |
| CC(C)C[C@H](NC(=O)[C@@H](Cc1c[nH]c2ccccc12)NC(=O)[C@H](Cc1ccc(O)cc1)NC(=O)[C@H](CO)NC(=O)[C@H](Cc1c[nH]c2ccccc12)NC(=O)[C@H](Cc1c[nH]cn1)NC(=O)[C@@H]1CCC(=O)N1)C(=O)N[C@@H](CCCNC(=N)N)C(=O)N1CCC[C@H]1C(=O)NCC(N)=O [Triptorelin] | > 45.8 µM | > 45.8 µM |
| C[Si](C)(C)O[Si](C)(C)O[Si](C)(C)C [Trisiloxane, octamethyl-] | > 45.8 µM | > 45.8 µM |
| Cc1c(C)c2c(c(C)c1O)CCC(C)(COc1ccc(CC3SC(=O)NC3=O)cc1)O2 (configuration not stated) [Troglitazone] | > 45.8 µM | > 45.8 µM |
